The record followed here is patent publication US9839642B2, “Beta-tetrazolyl-propionic acids as metallo-beta-lactamase inhibitors” (priority 2014, dated 2017).

The target of assay [1] is NDM-1 (Klebsiella pneumoniae, UniProt C7C422). Description: Enzyme activity: determination of IC50, fluorescence assay with CCF2-FA substrate. Format: biochemical. To be noted: NDM-1 enzyme 1 pM, CCF2-FA 1.25 μM, 2 hours at 25° C.; read-out: NDM1 IC50. An outline of the steps:
(§1)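 In pH 7 phosphate buffer (100 mM) with 10 μM ZnSO4 and 0.005% Tween-20, CCF2-FA substrate (1.25 μM final) was hydrolysed for 2 h at 25 °C by NDM-1, IMP-1 or VIM-1 at 1, 2 or 30 pM in the presence of inhibitor at 20–0.00063 μM. Emission 460 nm/excitation 405 nm; 4-parameter curve fit gave IC50.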

In assay [2] the target is IMP-1 (Serratia marcescens, UniProt P52699). Described as above. Format: biochemical. The note with it: IMP-1 enzyme 2 pM, CCF2-FA 1.25 μM, 2 hours at 25° C.; read-out: IMP1 IC50. A digest of the protocol: as §1
In assay [3] the target is VIM-1 (Pseudomonas aeruginosa, UniProt A0A0F7KYQ8). The description is as above. Format: biochemical. The note with it: VIM-1 enzyme 30 pM, CCF2-FA 1.25 μM, 2 hours at 25° C.; read-out: VIM1 IC50. An outline of the steps:
as §1

For assay [4], the system named is Serratia marcescens expressing IMP-1 (CL5741). Description: Antibiotic potentiation activity: synergistic concentration (MITC95) with imipenem, growth by OD600. In kind it is cell-based. To be noted: S. marcescens CL5741 (IMP-1), 95% inhibition of growth. An outline of the steps:
(§2)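 MITC95 = lowest inhibitor concentration giving 95% growth inhibition, read by absorbance after 22–24 h at 35° C. Compound range 200 μM to 0.195 μM, imipenem fixed at 1 or 4 μg/ml, bacteria in 1.1×CAMHB from saline suspension diluted 1:100.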

Assay [5] concerns Escherichia coli expressing NDM-1 (CLB30016). The assay is described as above. Format: cell-based. The note with it: E. coli CLB30016 (NDM-1), 95% inhibition of growth. An outline of the steps:
as §2

Assay [6] deals with Klebsiella pneumoniae expressing VIM-1 (IHMA599644). The description is as above. Format: cell-based. The note with it: K. pneumoniae IHMA599644 (VIM-1), 95% inhibition of growth. A digest of the protocol: as §2

One may read the IC50 as the midpoint of a concentration-inhibition curve.

NDM-1, sequence (C7C422 29-270, looked up, species assumed): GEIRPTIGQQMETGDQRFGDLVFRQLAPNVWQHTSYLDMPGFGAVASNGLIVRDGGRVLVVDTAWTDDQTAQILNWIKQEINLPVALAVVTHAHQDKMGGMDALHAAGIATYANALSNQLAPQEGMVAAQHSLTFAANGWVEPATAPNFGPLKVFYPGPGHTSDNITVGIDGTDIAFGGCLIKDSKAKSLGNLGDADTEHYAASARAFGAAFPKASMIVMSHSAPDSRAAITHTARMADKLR
IMP-1, sequence (P52699 19-246, looked up, species assumed): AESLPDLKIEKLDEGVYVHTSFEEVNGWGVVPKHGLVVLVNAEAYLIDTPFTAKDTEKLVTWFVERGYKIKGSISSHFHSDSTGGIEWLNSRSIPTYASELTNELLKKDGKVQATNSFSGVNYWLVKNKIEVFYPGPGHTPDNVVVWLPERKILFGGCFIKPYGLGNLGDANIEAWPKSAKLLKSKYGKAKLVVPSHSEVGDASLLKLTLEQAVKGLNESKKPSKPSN

Take `CC(C)C[C@H](C(=O)O)[C@H](Cc1ccc(Oc2cccc(C3CCCNC3)c2)nc1)c1nn[nH]n1` (stereo partly drawn) [Example 382, (2S)-4-methyl-2-[(1S)-2-[6-(3-piperidin-3-ylphenoxy)pyridin-3-yl]-1-(2H-tetrazol-5-yl)ethyl]pentanoic acid]: the IC50 is 140 nM in assay [1], 170 nM in assay [2] and 34 nM in assay [3]. Moreover, the “IMP1 SM5741 MITC95” value in assay [4] was determined as 12.5 µM. Also, in assay [5], the “NDM1 EC30016 MITC95” value was 12.5 µM. The “VIM1 KP599644 MITC95” value in assay [6] worked out at 75 µM.
As for `CC(C)C[C@H](C(=O)O)[C@H](Cc1ccc(Oc2ccc(CO)cc2)nc1)c1nn[nH]n1` [Example 383, (2S)-2-[(1S)-2-{6-[4-(hydroxymethyl)phenoxy]pyridin-3-yl}-1-(2H-tetrazol-5-yl)ethyl]-4-methylpentanoic acid], the IC50 in assay [1] came out at 34 nM; in assay [2], 150 nM; in assay [3] it was 56 nM. The “IMP1 SM5741 MITC95” value in assay [4] turned out to be 12.5 µM. Moreover, in assay [5], the “NDM1 EC30016 MITC95” value came to 25 µM. In addition, the “VIM1 KP599644 MITC95” value in assay [6] was found to be 150 µM.
For `CC(C)C[C@H](C(=O)O)[C@H](Cc1ccc(Oc2ccc(CC(C)(C)N)cc2)nc1)c1nn[nH]n1` [Example 386, (2S)-2-[(1S)-2-{6-[4-(2-amino-2-methylpropyl)phenoxy]pyridin-3-yl}-1-(2H-tetrazol-5-yl)ethyl]-4-methylpentanoic acid], the results for the IC50 in assay [1], in assay [2] and in assay [3] were 120 nM, 180 nM and 100 nM, respectively. Further, in assay [4], the “IMP1 SM5741 MITC95” value was 12.5 µM. Also, the “NDM1 EC30016 MITC95” value in assay [5] came to 25 µM. The “VIM1 KP599644 MITC95” value in assay [6] is above 200 µM.
In the case of `CC(C)C[C@H](C(=O)O)[C@H](Cc1ccc(Oc2cccc3c2CCNC3)nc1)c1nn[nH]n1` [Example 388, (2S)-4-methyl-2-[(1S)-2-[6-(1,2,3,4-tetrahydroisoquinolin-5-yloxy)pyridin-3-yl]-1-(2H-tetrazol-5-yl)ethyl]pentanoic acid], the IC50 came out at 130 nM in assay [1], 340 nM in assay [2] and 18 nM in assay [3]. The “IMP1 SM5741 MITC95” value in assay [4] was determined as 18.8 µM. Besides, the “NDM1 EC30016 MITC95” value in assay [5] was found to be 25 µM. For the same compound, in assay [6], the “VIM1 KP599644 MITC95” value turned out to be 38 µM.
Regarding `CC(C)C[C@H](C(=O)O)[C@H](Cc1ccc(Oc2cccc3c2CCCN3)nc1)c1nn[nH]n1` [Example 389, (2S)-4-methyl-2-[(1S)-2-[6-(1,2,3,4-tetrahydroquinolin-5-yloxy)pyridin-3-yl]-1-(2H-tetrazol-5-yl)ethyl]pentanoic acid], the IC50 in assay [1] turned out to be 16 nM; in assay [2], 58 nM; in assay [3] it was 4.4 nM. In assay [4], the “IMP1 SM5741 MITC95” value stood at 6.2 µM. The “NDM1 EC30016 MITC95” value in assay [5] amounted to 25 µM. Further, the “VIM1 KP599644 MITC95” value in assay [6] was 100 µM.
Take `CC(C)C[C@H](C(=O)O)[C@H](Cc1ccc(Oc2ccc(CN)cc2)nc1)c1nn[nH]n1` [Example 390, (2S)-2-[(1S)-2-{6-[4-(aminomethyl)phenoxy]pyridin-3-yl}-1-(2H-tetrazol-5-yl)ethyl]-4-methylpentanoic acid]: the IC50 in assay [1] turned out to be 35 nM; in assay [2] it was 240 nM; in assay [3], 5.3 nM. Besides, in assay [4], the “IMP1 SM5741 MITC95” value came to 12.5 µM. The “NDM1 EC30016 MITC95” value in assay [5] came out at 1.6 µM. The “VIM1 KP599644 MITC95” value in assay [6] came out at 25 µM.
For the compound `CC(C)C[C@H](C(=O)O)[C@H](Cc1ccc(Oc2ccccn2)nc1)c1nn[nH]n1` [Example 391, (2S)-4-methyl-2-[(1S)-2-[6-(pyridin-2-yloxy)pyridin-3-yl]-1-(2H-tetrazol-5-yl)ethyl]pentanoic acid], the IC50 is 44 nM in assay [1], 640 nM in assay [2] and 52 nM in assay [3]. Further, the “IMP1 SM5741 MITC95” value in assay [4] is 25 µM. In addition, in assay [5], the “NDM1 EC30016 MITC95” value is 25 µM. Also, the “VIM1 KP599644 MITC95” value in assay [6] was 100 µM.
On to `CCC[C@H](C(=O)O)[C@H](Cc1ccccc1-c1ccccc1)c1nn[nH]n1` [Example 393, (2S)-2-[(1S)-2-biphenyl-2-yl-1-(2H-tetrazol-5-yl)ethyl]pentanoic acid], for which the values for the IC50 in assay [1], in assay [2] and in assay [3] were 3.2 nM, 1000 nM and 4.5 nM, respectively. The “IMP1 SM5741 MITC95” value in assay [4] is 25 µM. Further, in assay [5], the “NDM1 EC30016 MITC95” value was determined as 4.7 µM. Further, the “VIM1 KP599644 MITC95” value in assay [6] is 75 µM.
`CCC[C@H](C(=O)O)[C@H](Cc1ccccc1-c1ccc(C(N)=O)cc1)c1nn[nH]n1` [Example 394, (2S)-2-[(1S)-2-(4′-carbamoylbiphenyl-2-yl)-1-(2H-tetrazol-5-yl)ethyl]pentanoic acid]: the values for the IC50 in assay [1], in assay [2] and in assay [3] were 2.2 nM, 450 nM and 3.9 nM, respectively. Also, in assay [4], the “IMP1 SM5741 MITC95” value was 25 µM. In addition, the “NDM1 EC30016 MITC95” value in assay [5] worked out at 4.7 µM. Also, the “VIM1 KP599644 MITC95” value in assay [6] came out at 38 µM.
As to `CCC[C@H](C(=O)O)[C@H](Cc1ccccc1-c1ccc(C2CCNCC2)cc1)c1nn[nH]n1` [Example 395, (2S)-2-[(1S)-2-(4′-piperidin-4-ylbiphenyl-2-yl)-1-(2H-tetrazol-5-yl)ethyl]pentanoic acid], the values for the IC50 in assay [1], in assay [2] and in assay [3] were 0.1 nM, 120 nM and 0.48 nM, respectively. Also, the “IMP1 SM5741 MITC95” value in assay [4] was determined as 6.25 µM. The “NDM1 EC30016 MITC95” value in assay [5] was determined as 6.2 µM. Moreover, in assay [6], the “VIM1 KP599644 MITC95” value came out at 16 µM.
On to `CCC[C@H](C(=O)O)[C@H](Cc1ccccc1-c1cccnc1)c1nn[nH]n1` [Example 396, (2S)-2-[(1S)-2-(2-pyridin-3-ylphenyl)-1-(2H-tetrazol-5-yl)ethyl]pentanoic acid], for which the IC50 turned out to be 9.2 nM in assay [1], 2800 nM in assay [2] and 18 nM in assay [3]. For the same compound, the “IMP1 SM5741 MITC95” value in assay [4] came out at 75 µM. In addition, the “NDM1 EC30016 MITC95” value in assay [5] is 9.4 µM. For the same compound, in assay [6], the “VIM1 KP599644 MITC95” value was 50 µM.
On to `CCC[C@H](C(=O)O)[C@H](Cc1ccccc1-c1ccncc1)c1nn[nH]n1` [Example 397, (2S)-2-[(1S)-2-(2-pyridin-4-ylphenyl)-1-(2H-tetrazol-5-yl)ethyl]pentanoic acid], for which the results for the IC50 in assay [1], in assay [2] and in assay [3] were 13 nM, 5000 nM and 16 nM, respectively. In addition, in assay [4], the “IMP1 SM5741 MITC95” value came to 200 µM. The “NDM1 EC30016 MITC95” value in assay [5] was 6.2 µM. Besides, in assay [6], the “VIM1 KP599644 MITC95” value turned out to be 75 µM.
For `CCC[C@H](C(=O)O)[C@H](Cc1ccccc1-c1ccc(N)nc1)c1nn[nH]n1` [Example 398, (2S)-2-[(1S)-2-[2-(6-aminopyridin-3-yl)phenyl]-1-(2H-tetrazol-5-yl)ethyl]pentanoic acid], the IC50 was 1.6 nM in assay [1], 1100 nM in assay [2] and 10 nM in assay [3]. Also, the “IMP1 SM5741 MITC95” value in assay [4] is 75 µM. The “NDM1 EC30016 MITC95” value in assay [5] is 3.1 µM. Moreover, the “VIM1 KP599644 MITC95” value in assay [6] came to 25 µM.
Take `CCC[C@H](C(=O)O)[C@H](Cc1ccccc1-c1cccc(C(N)=O)c1)c1nn[nH]n1` [Example 399, (2S)-2-[(1S)-2-(3′-carbamoylbiphenyl-2-yl)-1-(2H-tetrazol-5-yl)ethyl]pentanoic acid]: the IC50 was determined as 1.4 nM in assay [1], 430 nM in assay [2] and 1.6 nM in assay [3]. The “IMP1 SM5741 MITC95” value in assay [4] stood at 25 µM. Moreover, the “NDM1 EC30016 MITC95” value in assay [5] came to 6.2 µM. Moreover, the “VIM1 KP599644 MITC95” value in assay [6] is 25 µM.
Consider `CC(C)C[C@H](C(=O)O)[C@H](Cc1ccc(Oc2cccc(CN)c2)nc1)c1nn[nH]n1` [Example 400, (2S)-2-[(1S)-2-{6-[3-(aminomethyl)phenoxy]pyridin-3-yl}-1-(2H-tetrazol-5-yl)ethyl]-4-methylpentanoic acid], for which the IC50 in assay [1] amounted to 340 nM; in assay [2] it was 750 nM; in assay [3], 42 nM. Further, the “IMP1 SM5741 MITC95” value in assay [4] amounted to 25 µM. Besides, the “NDM1 EC30016 MITC95” value in assay [5] was 12.5 µM. For the same compound, in assay [6], the “VIM1 KP599644 MITC95” value is 50 µM.
For the compound `CCC[C@H](C(=O)O)[C@H](Cc1ccccc1-c1ccc(S(N)(=O)=O)cc1)c1nn[nH]n1` [Example 401, (2S)-2-[(1S)-2-(4′-sulfamoylbiphenyl-2-yl)-1-(2H-tetrazol-5-yl)ethyl]pentanoic acid], the IC50 in assay [1] is 3.9 nM; in assay [2] it was 1900 nM; in assay [3], 13 nM. For the same compound, the “IMP1 SM5741 MITC95” value in assay [4] came to 50 µM. In addition, in assay [5], the “NDM1 EC30016 MITC95” value is 9.4 µM. Also, the “VIM1 KP599644 MITC95” value in assay [6] came out at 50 µM.
With `CCC[C@H](C(=O)O)[C@H](Cc1ccccc1-c1ccc(NS(C)(=O)=O)cc1)c1nn[nH]n1` [Example 402, (2S)-2-[(1S)-2-{4′-[(methylsulfonyl)amino]biphenyl-2-yl}-1-(2H-tetrazol-5-yl)ethyl]pentanoic acid], the IC50 in assay [1] was 0.095 nM; in assay [2] it was 230 nM; in assay [3], 1.5 nM. Further, the “IMP1 SM5741 MITC95” value in assay [4] amounted to 12.5 µM. In addition, the “NDM1 EC30016 MITC95” value in assay [5] amounted to 3.1 µM. The “VIM1 KP599644 MITC95” value in assay [6] worked out at 25 µM.
